From patent US20160095810A1, “Cosmetic and/or dermatological compositions containing polyphenols stabilized by perfluoropolyether phosphates and use of perfluoropolyether phosphates as stabilizing agents for polyphenols” (BIO.LO.GA, priority 2003, published 2016)

What was measured:
[1] = stability of ascorbic acid in the cream, UV determination at 266.5 nm; type: physicochemical; conditions: cream of Example 3, 4 months at room temperature then 45° C. for one month
Experimental: The stability of the ascorbic acid contained in the cream was determined as follows.
A series of samples of the cream contained in the said small plastic jars was kept for a period of 4 months at room temperature and then in an oven at 45° C. for one month, after which the ascorbic acid content of the cream was checked.
In order to determine the ascorbic acid content, 100 mg of cream were diluted in 100 ml of 0.1 M phosphate buffer at pH 6, and the thus obtained suspension was magnetically stirred in the dark for 20 minutes. Thereafter, 30 ml of the suspension were transferred to a 50 ml centrifuge tube and 15 ml of chloroform were added. The tube was shaken for 10 minutes and then centrifuged at 6000 rpm for 5 minutes. The upper aqueous phase was directly analyzed with a UV Vis Jasco V-350 spectrophotometer, using phosphate buffer as a blank and the ascorbic acid peak at 266.5 nm was measured.
The ascorbic acid concentration was determined by means of a calibration curve made from standard solutions containing 1.0, 1.5 and 2.0 mg ascorbic acid/100 ml phosphate buffer.

[2] = stability test of the cream, twelve weeks at 45° C., viscosity check and HPLC content; type: physicochemical; conditions: cream of Example 1, twelve weeks at 45° C.; nominal tocopherol 5, Greenselect 0.5, Leucoselect 0.5
Experimental: The cream was packed in plastics containers of 50 ml and subjected to a test to confirm the stability. A series of samples of the cream contained in the said small plastic jars was kept in an oven at 45° C. for twelve weeks, after which the viscosity of the cream was checked and found unaltered with respect to the starting value.
In addition there was the verification of the amount of polyphenols and vitamin E present in the cream at the end of the twelve weeks at 45° C., by means of an HPLC method, using a Macherey-Nagel column, Nucleosil 100-5 C18, packed with 5 μm particles (150×4.6 mm internal diameter), and a pre-column system Nucleosil 100-5 C18, CC 8/4.
The determination of free tocopherol, carried out using methanol as the eluent in isocratic conditions, with a flow rate of 1 ml/min and λ 290 nm, gave a value of 5.2%.
The determination of the polyphenol concentration in the cream was carried out using a mobile phase in binary gradient as eluent, composed of: phase A=0.3% formic acid in water and phase B=methanol; flow rate 1 ml/min; λ=278 nm. In such conditions the Greenselect® has a retention time Rt=22.84 min and the Leucoselect® Rt=6.53 min.

SMILES | ascorbic acid lost by the end of the storage period [1] | ascorbic acid concentration from the calibration curve ([1]; nominal 2 mg/100 ml) | amount present in the cream at the end of storage (HPLC) [2]
O=C1O[C@H]([C@@H](O)CO)C(O)=C1O [ascorbic acid, Ascorbic acid] | 7.8% | 1.844 mg/100 ml | –
Cc1c(C)c2c(c(C)c1O)CC[C@@](C)(CCC[C@H](C)CCC[C@H](C)CCCC(C)C)O2 [free tocopherol, Tocopherol] | – | – | 5.2%
